# Like-named read-outs stand apart in the source and are kept apart here.
# Experiments:
# [1] = Static stability at elevated humidity (appearance and XRPD after storage); details: for Result (stability of screening orotic acid salts): Table 3, XRPD dry and after 1 week at 40° C./75% relative humidity (FIG. 14); for Result (stability of screening fumaric acid salts): Table 8, 40° C./75% RH, 1 day; for Static stability 25° C./96% RH: storage at 25° C./96% RH; for Static stability 25° C./96% RH / Static stability 40° C./75% RH: up to 1 week, appearance and XRPD; for Static stability 40° C./75% RH: storage at 40° C./75% RH
# [2] = for Behaviour after deliquescence when humidity is reduced / On desorption, moisture retained down to / water lost by: GVS desorption; for Total weight change 0-90% RH / Hygroscopicity / behaviour in GVS experiment / Relative humidity at which sample deliquesced in GVS (stable until) / On desorption, moisture retained down to / water lost by: 25° C.; for XRPD of residue after GVS: residue recovered after GVS isotherm; for Relative humidity at which sample deliquesced in GVS (stable until): GVS adsorption
# Description: Sorption isotherms were obtained using a SMS DVS Intrinsic moisture sorption analyzer, controlled by DVS Intrinsic Control software v1.0.1.2 (or v 1.0.1.3). The sample temperature was maintained at 25° C. by the instrument controls. The humidity was controlled by mixing streams of dry and wet nitrogen, with a total flow rate of 200 ml/min The relative humidity was measured by a calibrated Rotronic probe (dynamic range of 1.0-100% RH), located near the sample. The weight change, (mass relaxation) of the sample as a function of % RH was constantly monitored by the microbalance (accuracy±0.005 mg).
# Typically 5-20 mg of sample was placed in a tared mesh stainless steel basket under ambient conditions. The sample was loaded and unloaded at 40% RH and 25° C. (typical room conditions). A moisture sorption isotherm was performed as outlined below (2 scans giving 1 complete cycle). The standard isotherm was performed at 25° C. at 10% RH intervals over a 0-90% RH range. Data analysis was carried out using Microsoft Excel using DVS Analysis Suite v6.2 (or 6.1 or 6.0).
# The sample is recovered after completion of the isotherm and re-analyzed by XRPD.
# [3] = exposed to 650° C.
compound,measurement,setting,value
CN1CCCC1c1cccnc1.O=C(O)c1cc(=O)[nH]c(=O)[nH]1.O=C(O)c1cc(=O)[nH]c(=O)[nH]1 (centres unmarked) [Formation in ethanol],Result (stability of screening orotic acid salts),[1],Stable
CN1CCCC1c1cccnc1.O=C(O)C=CC(=O)O (centres unmarked) [Formation in neat nicotine],Result (stability of screening fumaric acid salts),[1],Deliquesced
CN1CCCC1c1cccnc1.O=C(O)c1cc(=O)[nH]c(=O)[nH]1 (centres unmarked) [Formation in water],Result (stability of screening orotic acid salts),[1],Stable
"CN1CCCC1c1cccnc1.O=C(O)/C=C/C(=O)O (centres unmarked) [Fumarate salt (prepared in THF), nicotine fumarate]",Behaviour after deliquescence when humidity is reduced,[2]; fumarate,remains a liquid
same,Behaviour after deliquescence when humidity is reduced,"[2]; listed as Fumarate Pattern 1, fumarate",does not re-crystallize
same,Weight gain from 0-90% RH in the GVS isotherm,"[2]; GVS isotherm, 0-90% RH",82%
same,Total weight change 0-90% RH,"[2]; GVS isotherm, 0-90% RH",Total weight change 0-90% RH = 82 wt. %
same,Hygroscopicity / behaviour in GVS experiment,"[2]; 0-90% RH, fumarate","wt. %, sample deliquesces and"
same,Hygroscopicity / behaviour in GVS experiment,"[2]; 0-90% RH, listed as Fumarate Pattern 1, fumarate",hygroscopic
same,Nicotine liberated on decomposition (peak areas),[3],97 % peak areas
same,Humidity at which the form deliquesces (elevated humidities),[1],> 75 % RH
CN1CCCC1c1cccnc1.O=C(O)c1cc(=O)[nH]c(=O)[nH]1 (centres unmarked) [Grinding],Result (stability of screening fumaric acid salts),[1],Deliquesced
(S)-nicotine bis-orotate [Salt A],Total weight change 0-90% RH,"[2]; GVS isotherm, 0-90% RH","RH = 0.8 wt. %, steady change in"
same,Hygroscopicity / behaviour in GVS experiment,[2]; 0-90% RH,only slightly hygroscopic
same,XRPD of residue after GVS,[2],XRPD of residue showed no
same,Nicotine liberated on decomposition (peak areas),[3],97 % peak areas
same,Static stability 25° C./96% RH,[1],"Pattern 1, runny material"
same,Static stability 25° C./96% RH,[1]; listed as Orotate Pattern 1,runny material
same,Static stability 25° C./96% RH,[1]; listed as bis-orotate salt-co-crystal,runny material
same,Static stability 40° C./75% RH,[1],No change
same,Thermal stability,,thermally stable
(S)-nicotine mono-orotate hemi-hydrate [Salt B],Relative humidity at which sample deliquesced in GVS (stable until),[2],80% RH then deliquesced On
same,Relative humidity at which sample deliquesced in GVS (stable until),[2]; listed as Orotate Pattern 2,80 % RH
same,Behaviour after deliquescence when humidity is reduced,[2],re-crystallized
same,"On desorption, moisture retained down to / water lost by",[2],down to 60% RH XRPD of residue
same,"On desorption, moisture retained down to / water lost by",[2]; listed as Orotate Pattern 2,60 % RH
same,Total weight change 0-90% RH,"[2]; GVS isotherm, 0-90% RH","RH = ~60 wt. %, stable until"
same,XRPD of residue after GVS,[2],Pattern 2 with some Orotate Pattern 1
same,XRPD of residue after GVS,[2]; listed as Orotate Pattern 2,contained some Pattern 1 material
same,Nicotine liberated on decomposition (peak areas),[3],97 % peak areas
same,Stability on exposure to high / elevated humidity,"[1]; high humidity, general statement",not stable to exposure to high humidity
same,Static stability 25° C./96% RH,[1],"Sticky after 24 hours, deliquesced"
same,Static stability 25° C./96% RH,[1]; listed as Orotate Pattern 2,deliquesced
same,Static stability 40° C./75% RH,[1],"Pattern 2, sticky material"
same,Static stability 40° C./75% RH,[1]; listed as Orotate Pattern 2,sticky material

# Source: patent US10865192B2, “Nicotine salts, co-crystals, and salt co-crystal complexes” (priority 2014, dated 2020)
